Columns and labels:
[1] = tested on: L-1210 Leukemia; assay: L-1210 Leukemia (Table VIII); conditions: for Average Weight Change / Effect MST % T/C / MST Days / Survivors Day 5(30) / Average Weight Change,g: d.1
Experimental: The sodium and ammonium salts of the present invention were tested against transplantable mouse tumors as indicated below. The methodology used generally followed the protocols of the National Cancer Institute (Cancer Chemotherapy Rep., Part 3, 3, 1-103 (1972). The essential experimental details are given at the bottom of the following tables.

[2] = tested on: L-1210 Leukemia; assay: L-1210 Leukemia (Table IX); format: in vivo, mice

## O=C1[O][Pt]2([NH]C3CCCCC3[NH]2)[O]C(=O)C1O (stereo not shown) [2-hydroxymalonato(1,2-diaminocyclohexane)platinum (II)]
[1]; 25 mg/kg/inj ip
  Average Weight Change: -0.3 g
  Effect MST % T/C: 142 % T/C
  MST Days: 8.5 days
  Survivors Day 5(30): 6/6
[1]; 50 mg/kg/inj ip
  Average Weight Change,g: +0.1 g
  Effect MST % T/C: 150 % T/C
  MST Days: 9.0 days
  Survivors Day 5(30): 6/6
[1]; 100 mg/kg/inj ip
  Average Weight Change: -1.5 g
  Effect MST % T/C: 183 % T/C
  MST Days: 11.0 days
  Survivors Day 5(30): 6/6
[1]; 200 mg/kg, single ip injection
  lethality: lethal
[1]; 200 mg/kg/inj ip
  Average Weight Change,g: TOX
  Effect MST % T/C: TOX
  MST Days: TOX
  Survivors Day 5(30): 0/6
[1]; single ip injections
  maximum T/C: 183%
[1]; single ip injections, dose of maximum T/C
  optimal doses: 100 mg/kg

## O=C1[O][Pt]2([NH]CC3(CCCCC3)C[NH]2)[O]C(=O)C1[O-].[Na+] [Example 9, 2-Hydroxymalonato (1,1-diaminomethylcyclohexane)-platinum (II), sodium salt]
other
  Water-solubility at room temperature: ≥ 100 mg/mL
[2]; 2 mg/kg/inj ip, qd 1→9
  Average Weight Change,g: -1.3 g
  Effect MST % T/C: 131 % T/C
  MST Days: 8.5 days
[2]; 4 mg/kg/inj ip, qd 1→9
  Average Weight Change,g: -1.2 g
  Effect MST % T/C: 154 % T/C
  MST Days: 10.0 days
[2]; 8 mg/kg/inj ip, qd 1→9
  Average Weight Change,g: -1.3 g
  Effect MST % T/C: 238 % T/C
  MST Days: 15.5 days
[2]; 12 mg/kg/inj ip, Day 1
  Average Weight Change,g: -1.8 g
  Effect MST % T/C: 162 % T/C
  MST Days: 10.5 days
[2]; 12 mg/kg/inj ip, qd 1→9
  Average Weight Change,g: -3.0 g
  Effect MST % T/C: 292 % T/C
  MST Days: 19.0 days
[2]; 24 mg/kg/inj ip, Day 1
  Average Weight Change,g: -3.7 g
  Effect MST % T/C: 215 % T/C
  MST Days: 14.0 days
[2]; 36 mg/kg/inj ip, Day 1
  Average Weight Change,g: -4.3 g
  Effect MST % T/C: 223 % T/C
  MST Days: 14.5 days
[2]; 48 mg/kg/inj ip, Day 1
  Average Weight Change,g: -3.6 g
  Effect MST % T/C: 200 % T/C
  MST Days: 13.0 days
[2]; qd 1→9 (cis-DDP 2.4, parent 8 and 12, sodium salt 12 mg/kg/injection)
  maximum T/C: 292%
[2]; single ip injection at maximum tolerated dose (cis-DDP 8 mg/kg, the two others 36 mg/kg)
  maximum T/C: 223%
